System: pERK1/2(THR202/TYR204) level in AsPC-1 cells
Assay: pERK assay (HTRF) in AsPC-1 cell line
Type: cell-based
Settings: 2 h compound treatment
Experimental: AsPC-1 cell line was used in this study. Cells were maintained in RPMI-1640 supplemented with 10% fetal bovine serum (Thermo Fisher), 50 units/mL penicillin and streptomycin (Thermo Fisher) and kept at 37° C. in a humidified atmosphere of 5% CO2 in air. Cells were reinstated from frozen stocks that were laid down within 30 passages from the original cells purchased. 30000 cells per well were seeded into a 96-well plate and incubated overnight. Cells were treated with a 10-point dilution series. The final compound concentration is from 0 to 10 μM. After 2 h compound treatment, cells were lysed, and the pERK1/2(THR202/TYR204) level in the cell lysates was detected by HTRF kit (Cisbio). In brief, a total of 16 μL of cell lysate from each well of a 96-well plate was transferred to a 384-well white assay plate. Lysate from each well was incubated with 2 μL of Eu3+-cryptate (donor) labeled anti-phospho-ERK1/2 and 2 μL of D2 (acceptor) labeled anti-phospho-ERK1/2 antibodies (Cisbio) overnight in dark at room temperature. When donor and acceptor are in close proximity, excitation of the donor with laser triggers a Fluorescence Resonance Energy Transfer (FRET) towards the acceptor, which in turn fluoresces at 655 nm wavelength. FRET signals were measured using a PHERAstar FSX reader (BMG Labtech). IC50 determination was performed by fitting the curve of percent inhibition versus the log of the inhibitor concentration using Dotmatics.

N#Cc1c(N)sc2c(F)ccc(-c3c(C(F)(F)F)cc4c(N5CC6CCC(C5)N6)nc(OCC5(C(F)F)CCOC5)nc4c3F)c12 (single isomer, unassigned) [Example 14-Isomer 3, 4-(4-(3,8-diazabicyclo[3.2.1]octan-3-yl)-2-((3-(difluoromethyl)tetrahydrofuran-3-yl)methoxy)-8-fluoro-6-(trifluoromethyl)quinazolin-7-yl)-2-amino-7-fluorobenzo[b]thiophene-3-carbonitrile]
IC50 (Homo sapiens, ASPC1, 2 h): 172 nM

N#Cc1c(N)sc2c(F)ccc(-c3c(C(F)(F)F)cc4c(N5CC6CCC(C5)N6)nc(OCC5(C(F)F)CCOC5)nc4c3F)c12 (single isomer, unassigned) [Example 14-Isomer 4, 4-(4-(3,8-diazabicyclo[3.2.1]octan-3-yl)-2-((3-(difluoromethyl)tetrahydrofuran-3-yl)methoxy)-8-fluoro-6-(trifluoromethyl)quinazolin-7-yl)-2-amino-7-fluorobenzo[b]thiophene-3-carbonitrile]
IC50: 138 nM

N#Cc1c(N)sc2c(F)ccc(-c3c(C(F)(F)F)cc4c(N5CC6CCC(C5)N6)nc(OCC5(C#N)CCOCC5)nc4c3F)c12 (single isomer, unassigned) [Example 22-Isomer 1, 4-(((7-(2-amino-3-cyano-7-fluorobenzo[b]thiophen-4-yl)-4-(3,8-diazabicyclo[3.2.1]octan-3-yl)-8-fluoro-6-(trifluoromethyl)quinazolin-2-yl)oxy)methyl)tetrahydro-2H-pyran-4-carbonitrile]
IC50: > 10000 nM

N#Cc1c(N)sc2c(F)ccc(-c3c(C(F)(F)F)cc4c(N5CC6CCC(C5)N6)nc(OCC5(C#N)CCOCC5)nc4c3F)c12 (single isomer, unassigned) [Example 22-Isomer 2, 4-(((7-(2-amino-3-cyano-7-fluorobenzo[b]thiophen-4-yl)-4-(3,8-diazabicyclo[3.2.1]octan-3-yl)-8-fluoro-6-(trifluoromethyl)quinazolin-2-yl)oxy)methyl)tetrahydro-2H-pyran-4-carbonitrile]
IC50: 72 nM

N#Cc1c(N)sc2c(F)ccc(-c3c(C(F)(F)F)cc4c(N5CC6CCC(C5)N6)nc(OCC5(C(F)F)COC5)nc4c3F)c12 (single isomer, unassigned) [Example 48-Isomer 2, 4-(4-(3,8-diazabicyclo[3.2.1]octan-3-yl)-2-((3-(difluoromethyl)oxetan-3-yl)methoxy)-8-fluoro-6-(trifluoromethyl)quinazolin-7-yl)-2-amino-7-fluoro benzo[b]thiophene-3-carbonitrile]
IC50 (Homo sapiens, ASPC1, 2 h): 65 nM

COC1(COc2nc(N3CC4CCC(C3)N4)c3cc(C(F)(F)F)c(-c4ccc(F)c5sc(N)c(C#N)c45)c(F)c3n2)CCOC1 (stereo not shown) [Example 3-Mixture 1, 4-(4-(3,8-diazabicyclo[3.2.1]octan-3-yl)-8-fluoro-2-((3-methoxytetra hydrofuran-3-yl)methoxy)-6-(trifluoromethyl)quinazolin-7-yl)-2-amino-7-fluoro benzo[b]thiophene-3-carbonitrile]
IC50 (Homo sapiens, ASPC1, 2 h): 1730 nM

N#Cc1c(N)sc2c(F)ccc(-c3c(C(F)(F)F)cc4c(N5CC6CCC(C5)N6)nc(OCC5(O)CCOC5)nc4c3F)c12 (stereo not shown) [Example 6, 4-(4-(3,8-diazabicyclo[3.2.1]octan-3-yl)-8-fluoro-2-((3-hydroxytetrahydrofuran-3-yl)methoxy)-6-(trifluoromethyl)quinazolin-7-yl)-2-amino-7-fluoro benzo[b]thiophene-3-carbonitrile]
IC50 (Homo sapiens, ASPC1, 2 h): 187 nM

N#Cc1c(N)sc2c(F)ccc(-c3c(C(F)(F)F)cc4c(N5CC6CCC(C5)N6)nc(OCC56CCC(C5)OC6)nc4c3F)c12 (stereo not shown) [Example 7, 4-(2-((2-oxabicyclo[2.2.1]heptan-4-yl)methoxy)-4-(3,8-diazabicyclo[3.2.1]octan-3-yl)-8-fluoro-6-(trifluoromethyl)quinazolin-7-yl)-2-amino-7-fluorobenzo[b]thiophene-3-carbonitrile]
IC50 (Homo sapiens, ASPC1, 2 h): 112 nM

COC(=O)N1CC(C)(COc2nc(N3CC4CCC(C3)N4)c3cc(C(F)(F)F)c(-c4ccc(F)c5sc(N)c(C#N)c45)c(F)c3n2)C1 [Example 8, methyl 3-(((7-(2-amino-3-cyano-7-fluorobenzo[h]thiophen-4-yl)-4-(3,8-diazabicyclo[3.2.1]octan-3-yl)-8-fluoro-6-(trifluoromethyl)quinazolin-2-yl)oxy)methyl)-3-methylazetidine-1-carboxylate]
IC50 (Homo sapiens, ASPC1, 2 h): 159 nM

CCC12CC(COc3nc(N4CC5CCC(C4)N5)c4cc(C(F)(F)F)c(-c5ccc(F)c6sc(N)c(C#N)c56)c(F)c4n3)(CO1)C2 [Example 12, 4-(4-(3,8-diazabicyclo[3.2.1]octan-3-yl)-2-((1-ethyl-2-oxabicyclo [2.1.1]hexan-4-yl)methoxy)-8-fluoro-6-(trifluoromethyl)quinazolin-7-yl)-2-amino-7-fluorobenzo[h]thiophene-3-carbonitrile]
IC50 (Homo sapiens, ASPC1, 2 h): 1730 nM

CC(=O)N1CC(C)(COc2nc(N3CC4CCC(C3)N4)c3cc(C(F)(F)F)c(-c4ccc(F)c5sc(N)c(C#N)c45)c(F)c3n2)C1 [Example 13, 4-(2-((1-acetyl-3-methylazetidin-3-yl)methoxy)-4-(3,8-diazabicyclo[3.2.1]octan-3-yl)-8-fluoro-6-(trifluoromethyl)quinazolin-7-yl)-2-amino-7-fluorobenzo[b]thiophene-3-carbonitrile]
IC50 (Homo sapiens, ASPC1, 2 h): 146 nM

CC12CC(COc3nc(N4CC5CCC(C4)N5)c4ccc(-c5ccc(F)c6sc(N)c(C#N)c56)c(F)c4n3)(CO1)C2 [Example 15, 4-(4-(3,8-diazabicyclo[3.2.1]octan-3-yl)-8-fluoro-2-((1-methyl-2-oxabicyclo[2.1.1]hexan-4-yl)methoxy)quinazolin-7-yl)-2-amino-7-fluorobenzo[b] thiophene-3-carbonitrile]
IC50 (Homo sapiens, ASPC1, 2 h): 7140 nM

CC12CC(COc3nc(N4C5CNCC4COC5)c4cc(C(F)(F)F)c(-c5ccc(F)c6sc(N)c(C#N)c56)c(F)c4n3)(CO1)C2 [Example 16, 4-(4-(3-oxa-7,9-diazabicyclo[3.3.1]nonan-9-yl)-8-fluoro-2-((1-methyl-2-oxabicyclo[2.1.1]hexan-4-yl)methoxy)-6-(trifluoromethyl)quinazolin-7-yl)-2-amino-7-fluorobenzo[b]thiophene-3-carbonitrile]
IC50 (Homo sapiens, ASPC1, 2 h): 143 nM

CC1(CC#N)CN(c2nc(N3CC4CCC(C3)N4)c3cc(C(F)(F)F)c(-c4ccc(F)c5sc(N)c(C#N)c45)c(F)c3n2)C1 [Example 17]
IC50 (Homo sapiens, ASPC1, 2 h): 561 nM

CC1(COc2nc(N3CC4CCC(C3)N4)c3cc(C(F)(F)F)c(-c4ccc(F)c5sc(N)c(C#N)c45)c(F)c3n2)COC1 [Example 18, 4-(4 (3,8-diazabicyclo[3.2.1]octan-3-yl)-8-fluoro-2-((3-methyloxetan-3-yl)methoxy)-6-(trifluoromethyl)quinazolin-7-yl)-2-amino-7-fluorobenzo [b]thiophene-3-carbonitrile]
IC50 (Homo sapiens, ASPC1, 2 h): 146 nM

N#Cc1c(N)sc2c(F)ccc(-c3c(C(F)(F)F)cc4c(N5CC6CCC(C5)N6)nc(OCC5(O)CCOCC5)nc4c3F)c12 [Example 19, 4-(4-(3,8-diazabicyclo[3.2.1]octan-3-yl)-8-fluoro-2-((4-hydroxytetrahydro-2H-pyran-4-yl)methoxy)-6-(trifluoromethyl)quinazolin-7-yl)-2-amino-7-fluorobenzo[b]thiophene-3-carbonitrile]
IC50 (Homo sapiens, ASPC1, 2 h): 326 nM
